Laboratory results from publication PMC11233931, “Remodeling tumor‐associated macrophage for anti‐cancer effects by rational design of irreversible inhibition of mitogen‐activated protein kinase‐activated protein kinase 2” (MedComm, 2024).
Like-named read-outs stand apart in the source and are kept apart here.

What was measured:
Test in all cases: Eurofins kinase selectivity profile against 380 other human recombinant kinases (Table S2)
Assay type in all cases: biochemical
[1] = target: T1, 380 human recombinant protein kinases (Homo sapiens, UniProt P00519, T315I); details: Abl(T315I)(h), read-out: Inhibition rate
T1 construct: purchased Eurofins (Celle Lévescault)
Method in brief: (§1)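 Off-target profiling: one compound assayed by a commercial provider over 380 recombinant human protein kinases at various concentrations.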

[2] = target: T2, 380 human recombinant protein kinases (Homo sapiens, UniProt P07332); details: Fes(h), read-out: Inhibition rate
T2 construct: purchased Eurofins (Celle Lévescault)
Method in brief: as §1

[3] = target: T3, 380 human recombinant protein kinases (Homo sapiens, UniProt P35968); details: KDR(h), read-out: Inhibition rate
T3 construct: purchased Eurofins (Celle Lévescault)
Method in brief: as §1

[4] = target: T4, 380 human recombinant protein kinases (Homo sapiens, UniProt P37173); details: TGFBR2(h), read-out: Inhibition rate (%)
T4 construct: purchased Eurofins (Celle Lévescault)
Method in brief: as §1

[5] = target: T5, 380 human recombinant protein kinases (Homo sapiens, UniProt Q00535); details: read-out: Inhibition rate; for inhibition at 0.01 µM: 10 nM; for inhibition at 0.1 µM: 100 nM; for inhibition at 1 µM: 1000 nM
T5 construct: purchased Eurofins (Celle Lévescault)
Method in brief: as §1

[6] = target: T6, 380 human recombinant protein kinases (Homo sapiens, UniProt Q13873); details: BMPR2(h), read-out: Inhibition rate
T6 construct: purchased Eurofins (Celle Lévescault)
T6 sequence (Q13873 27-1038): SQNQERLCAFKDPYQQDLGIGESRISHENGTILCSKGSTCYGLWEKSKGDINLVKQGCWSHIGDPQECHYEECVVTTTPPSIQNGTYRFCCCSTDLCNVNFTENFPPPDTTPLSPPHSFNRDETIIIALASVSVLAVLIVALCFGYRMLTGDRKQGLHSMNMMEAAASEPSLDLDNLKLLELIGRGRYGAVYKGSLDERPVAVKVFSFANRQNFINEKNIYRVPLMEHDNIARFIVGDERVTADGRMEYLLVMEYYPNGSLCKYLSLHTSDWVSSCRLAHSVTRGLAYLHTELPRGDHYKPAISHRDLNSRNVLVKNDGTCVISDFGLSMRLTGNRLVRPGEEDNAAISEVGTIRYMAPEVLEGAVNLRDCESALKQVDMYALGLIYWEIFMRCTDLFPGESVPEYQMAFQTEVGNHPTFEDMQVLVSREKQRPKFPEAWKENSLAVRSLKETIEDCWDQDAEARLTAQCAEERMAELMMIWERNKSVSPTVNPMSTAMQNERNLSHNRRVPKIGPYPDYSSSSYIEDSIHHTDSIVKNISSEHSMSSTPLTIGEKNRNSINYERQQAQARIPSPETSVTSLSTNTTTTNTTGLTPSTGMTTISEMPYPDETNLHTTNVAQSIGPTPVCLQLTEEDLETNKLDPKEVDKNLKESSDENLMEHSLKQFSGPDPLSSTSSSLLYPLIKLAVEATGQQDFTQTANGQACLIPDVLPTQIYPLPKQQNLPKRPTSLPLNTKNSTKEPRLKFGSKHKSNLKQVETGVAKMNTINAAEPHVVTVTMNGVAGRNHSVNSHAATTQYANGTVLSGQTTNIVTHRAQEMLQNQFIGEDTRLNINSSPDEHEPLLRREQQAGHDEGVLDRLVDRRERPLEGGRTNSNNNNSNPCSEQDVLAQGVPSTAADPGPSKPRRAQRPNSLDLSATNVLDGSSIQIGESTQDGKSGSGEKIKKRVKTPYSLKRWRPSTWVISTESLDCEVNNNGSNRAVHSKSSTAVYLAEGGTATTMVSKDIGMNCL
Method in brief: as §1

[7] = target: T7, 380 human recombinant protein kinases (Homo sapiens, UniProt Q9UKI8); details: TLK1(h), read-out: Inhibition rate (%)
T7 construct: purchased Eurofins (Celle Lévescault)
T7 sequence (Q9UKI8 1-766): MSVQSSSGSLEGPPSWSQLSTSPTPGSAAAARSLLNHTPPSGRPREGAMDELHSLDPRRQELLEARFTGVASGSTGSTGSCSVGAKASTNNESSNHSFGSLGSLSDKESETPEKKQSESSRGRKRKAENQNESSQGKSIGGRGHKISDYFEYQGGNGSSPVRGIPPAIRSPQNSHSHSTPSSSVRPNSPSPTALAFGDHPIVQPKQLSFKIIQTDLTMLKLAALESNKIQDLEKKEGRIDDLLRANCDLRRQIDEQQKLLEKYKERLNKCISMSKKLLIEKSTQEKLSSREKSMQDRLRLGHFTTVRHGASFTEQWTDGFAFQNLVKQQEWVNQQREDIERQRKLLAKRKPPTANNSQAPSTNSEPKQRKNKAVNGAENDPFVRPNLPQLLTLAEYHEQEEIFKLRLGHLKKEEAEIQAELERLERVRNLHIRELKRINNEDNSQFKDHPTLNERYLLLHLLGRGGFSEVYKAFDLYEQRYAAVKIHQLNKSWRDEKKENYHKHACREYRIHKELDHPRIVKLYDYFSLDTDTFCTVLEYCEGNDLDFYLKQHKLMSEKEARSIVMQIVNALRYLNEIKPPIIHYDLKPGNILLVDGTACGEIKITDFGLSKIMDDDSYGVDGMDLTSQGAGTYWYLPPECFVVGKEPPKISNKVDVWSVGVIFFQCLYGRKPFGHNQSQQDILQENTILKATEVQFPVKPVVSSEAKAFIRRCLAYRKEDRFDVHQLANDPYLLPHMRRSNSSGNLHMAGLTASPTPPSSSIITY
Method in brief: as §1

[8] = target: T8, 380 human recombinant protein kinases (Homo sapiens, UniProt Q9Y3S1); details: WNK2(h), read-out: Inhibition rate (%)
T8 construct: purchased Eurofins (Celle Lévescault)
Method in brief: as §1

T5 sequence (Q00535 whole entry): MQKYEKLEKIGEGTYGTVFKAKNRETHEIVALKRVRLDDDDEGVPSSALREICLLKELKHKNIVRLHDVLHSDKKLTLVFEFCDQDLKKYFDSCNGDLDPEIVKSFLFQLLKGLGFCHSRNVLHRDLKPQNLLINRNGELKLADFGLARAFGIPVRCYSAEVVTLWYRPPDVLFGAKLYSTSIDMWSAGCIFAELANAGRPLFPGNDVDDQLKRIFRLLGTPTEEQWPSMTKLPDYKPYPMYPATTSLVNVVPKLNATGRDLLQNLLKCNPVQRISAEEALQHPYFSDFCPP
T3 sequence (P35968 20-1356): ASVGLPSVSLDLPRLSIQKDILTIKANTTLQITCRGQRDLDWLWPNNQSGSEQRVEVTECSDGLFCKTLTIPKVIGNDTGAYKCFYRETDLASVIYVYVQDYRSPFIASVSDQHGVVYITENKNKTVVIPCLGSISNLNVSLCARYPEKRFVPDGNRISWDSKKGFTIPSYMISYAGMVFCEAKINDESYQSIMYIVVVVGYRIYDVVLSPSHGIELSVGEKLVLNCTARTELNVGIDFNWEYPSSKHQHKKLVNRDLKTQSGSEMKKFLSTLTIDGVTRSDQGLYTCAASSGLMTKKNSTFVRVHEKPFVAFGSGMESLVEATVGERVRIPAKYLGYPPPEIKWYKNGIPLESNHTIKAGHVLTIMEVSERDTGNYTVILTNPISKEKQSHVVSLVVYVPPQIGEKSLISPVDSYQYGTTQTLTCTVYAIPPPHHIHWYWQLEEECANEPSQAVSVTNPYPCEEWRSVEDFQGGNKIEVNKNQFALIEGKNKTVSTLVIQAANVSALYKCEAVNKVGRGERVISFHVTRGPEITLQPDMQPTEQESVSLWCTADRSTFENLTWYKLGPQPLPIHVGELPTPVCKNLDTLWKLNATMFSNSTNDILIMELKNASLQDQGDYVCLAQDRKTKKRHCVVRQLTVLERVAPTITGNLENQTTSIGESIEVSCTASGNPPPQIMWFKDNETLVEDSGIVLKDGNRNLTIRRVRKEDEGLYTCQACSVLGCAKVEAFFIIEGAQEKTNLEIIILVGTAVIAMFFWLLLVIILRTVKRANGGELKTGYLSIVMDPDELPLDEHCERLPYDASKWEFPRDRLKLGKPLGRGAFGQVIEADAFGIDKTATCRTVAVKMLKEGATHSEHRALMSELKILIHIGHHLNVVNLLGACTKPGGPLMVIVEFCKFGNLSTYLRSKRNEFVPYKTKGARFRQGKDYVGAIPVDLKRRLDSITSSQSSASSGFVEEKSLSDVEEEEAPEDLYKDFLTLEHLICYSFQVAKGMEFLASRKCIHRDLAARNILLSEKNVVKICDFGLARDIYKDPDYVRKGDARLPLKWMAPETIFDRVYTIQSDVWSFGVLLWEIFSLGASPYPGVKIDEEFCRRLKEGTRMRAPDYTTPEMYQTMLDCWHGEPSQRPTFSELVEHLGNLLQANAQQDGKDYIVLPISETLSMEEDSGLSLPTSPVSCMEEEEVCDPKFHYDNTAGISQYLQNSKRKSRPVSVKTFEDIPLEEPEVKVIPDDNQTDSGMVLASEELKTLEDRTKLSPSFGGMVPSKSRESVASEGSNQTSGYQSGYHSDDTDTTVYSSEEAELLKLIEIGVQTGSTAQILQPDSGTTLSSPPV
T2 sequence (P07332 whole entry): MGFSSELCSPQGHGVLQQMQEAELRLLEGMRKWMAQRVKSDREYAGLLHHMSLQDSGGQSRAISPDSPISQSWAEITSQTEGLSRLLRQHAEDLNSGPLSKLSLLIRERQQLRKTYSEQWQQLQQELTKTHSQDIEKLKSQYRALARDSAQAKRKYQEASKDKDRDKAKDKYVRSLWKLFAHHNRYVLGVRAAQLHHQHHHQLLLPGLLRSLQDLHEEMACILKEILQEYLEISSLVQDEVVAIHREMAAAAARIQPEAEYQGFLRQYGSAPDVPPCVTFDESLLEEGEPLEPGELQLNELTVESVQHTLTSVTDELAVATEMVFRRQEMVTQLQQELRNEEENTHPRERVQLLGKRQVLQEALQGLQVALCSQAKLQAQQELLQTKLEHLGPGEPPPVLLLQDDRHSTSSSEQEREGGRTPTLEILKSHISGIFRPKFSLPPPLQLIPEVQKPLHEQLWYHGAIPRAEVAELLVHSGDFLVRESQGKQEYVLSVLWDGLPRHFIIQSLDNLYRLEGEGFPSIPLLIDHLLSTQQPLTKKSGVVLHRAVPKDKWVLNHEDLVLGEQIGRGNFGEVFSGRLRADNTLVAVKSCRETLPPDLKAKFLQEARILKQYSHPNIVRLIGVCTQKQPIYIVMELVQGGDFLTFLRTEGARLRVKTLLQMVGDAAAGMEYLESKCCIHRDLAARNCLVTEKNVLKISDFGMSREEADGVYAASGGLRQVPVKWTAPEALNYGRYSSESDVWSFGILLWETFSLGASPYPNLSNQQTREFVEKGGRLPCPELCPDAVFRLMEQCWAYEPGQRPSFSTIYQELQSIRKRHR
T8 sequence (Q9Y3S1 whole entry): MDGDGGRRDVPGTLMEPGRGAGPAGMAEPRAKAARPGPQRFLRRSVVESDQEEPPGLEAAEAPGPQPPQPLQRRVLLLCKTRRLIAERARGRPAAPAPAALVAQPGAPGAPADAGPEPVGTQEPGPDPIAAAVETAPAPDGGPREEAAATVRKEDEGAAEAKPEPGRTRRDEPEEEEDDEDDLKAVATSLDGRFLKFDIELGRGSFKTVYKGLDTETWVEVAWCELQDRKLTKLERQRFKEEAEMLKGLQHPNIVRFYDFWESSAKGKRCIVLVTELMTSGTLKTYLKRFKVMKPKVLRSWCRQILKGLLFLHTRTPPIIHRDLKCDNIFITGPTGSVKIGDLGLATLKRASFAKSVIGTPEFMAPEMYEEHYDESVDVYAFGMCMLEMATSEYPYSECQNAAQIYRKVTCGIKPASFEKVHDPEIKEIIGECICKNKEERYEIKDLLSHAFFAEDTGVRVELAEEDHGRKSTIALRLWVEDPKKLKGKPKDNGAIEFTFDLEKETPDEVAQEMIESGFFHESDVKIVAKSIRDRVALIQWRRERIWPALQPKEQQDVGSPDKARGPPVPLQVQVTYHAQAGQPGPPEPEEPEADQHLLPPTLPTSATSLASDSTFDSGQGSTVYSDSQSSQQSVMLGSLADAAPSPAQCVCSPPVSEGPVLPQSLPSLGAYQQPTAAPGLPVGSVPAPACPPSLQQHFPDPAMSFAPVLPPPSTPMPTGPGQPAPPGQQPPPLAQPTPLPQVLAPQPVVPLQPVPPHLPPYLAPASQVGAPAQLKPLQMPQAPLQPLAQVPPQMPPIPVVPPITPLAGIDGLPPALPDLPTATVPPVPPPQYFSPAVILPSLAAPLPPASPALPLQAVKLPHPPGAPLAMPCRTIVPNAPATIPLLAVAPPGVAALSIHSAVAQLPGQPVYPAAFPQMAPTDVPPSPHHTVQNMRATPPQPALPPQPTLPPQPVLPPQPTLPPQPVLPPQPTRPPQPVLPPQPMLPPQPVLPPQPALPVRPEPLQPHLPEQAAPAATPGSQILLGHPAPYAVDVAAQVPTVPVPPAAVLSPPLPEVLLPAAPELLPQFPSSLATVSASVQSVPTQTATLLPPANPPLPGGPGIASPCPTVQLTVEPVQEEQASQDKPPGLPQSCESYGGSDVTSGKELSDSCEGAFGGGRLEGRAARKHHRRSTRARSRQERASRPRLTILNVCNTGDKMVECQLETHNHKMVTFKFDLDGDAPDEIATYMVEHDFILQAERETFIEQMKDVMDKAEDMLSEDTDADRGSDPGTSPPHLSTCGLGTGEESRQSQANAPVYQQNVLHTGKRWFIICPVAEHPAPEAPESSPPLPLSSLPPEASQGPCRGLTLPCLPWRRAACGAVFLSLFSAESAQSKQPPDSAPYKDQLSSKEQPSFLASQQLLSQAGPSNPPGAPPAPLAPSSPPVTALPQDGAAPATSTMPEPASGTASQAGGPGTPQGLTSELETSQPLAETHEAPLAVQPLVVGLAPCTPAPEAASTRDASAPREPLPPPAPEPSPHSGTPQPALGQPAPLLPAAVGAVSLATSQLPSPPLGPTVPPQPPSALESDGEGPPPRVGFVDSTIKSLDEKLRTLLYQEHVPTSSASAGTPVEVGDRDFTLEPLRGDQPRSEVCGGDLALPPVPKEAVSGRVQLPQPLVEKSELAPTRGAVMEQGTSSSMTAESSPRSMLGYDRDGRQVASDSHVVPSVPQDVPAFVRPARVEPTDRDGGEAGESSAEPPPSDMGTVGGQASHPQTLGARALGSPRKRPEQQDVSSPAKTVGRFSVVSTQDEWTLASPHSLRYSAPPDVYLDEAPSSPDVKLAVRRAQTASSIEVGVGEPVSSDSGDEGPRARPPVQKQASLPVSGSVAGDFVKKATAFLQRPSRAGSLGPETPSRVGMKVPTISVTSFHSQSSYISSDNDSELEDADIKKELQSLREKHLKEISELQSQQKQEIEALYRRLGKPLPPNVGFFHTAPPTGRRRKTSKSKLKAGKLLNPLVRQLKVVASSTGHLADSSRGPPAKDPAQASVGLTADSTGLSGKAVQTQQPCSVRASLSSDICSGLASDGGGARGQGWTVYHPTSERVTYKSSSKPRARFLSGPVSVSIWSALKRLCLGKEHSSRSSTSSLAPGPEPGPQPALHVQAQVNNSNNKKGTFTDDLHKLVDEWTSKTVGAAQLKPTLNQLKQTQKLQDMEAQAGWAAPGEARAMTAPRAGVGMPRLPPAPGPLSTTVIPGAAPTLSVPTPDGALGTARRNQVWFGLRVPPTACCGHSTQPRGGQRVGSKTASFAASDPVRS

In the case of `C=CC(=O)Nc1cc(-c2cc(-c3cc4c([nH]3)CCNC4=O)ccn2)ccc1OC(F)(F)F` [compound 11], the inhibition at 0.01 µM ([1]; 10 nM) is reported as 6%, the inhibition at 0.1 µM ([1]; 100 nM) is reported as 11% and the inhibition at 1 µM ([1]; 1000 nM) is reported as 31%. It also gave an inhibition at 0.01 µM ([2]; 10 nM) of -7%, an inhibition at 0.1 µM ([2]; 100 nM) of -5% and an inhibition at 1 µM ([2]; 1000 nM) of 0%. It also gave an inhibition at 0.01 µM ([3]; 10 nM) of 4%, an inhibition at 0.1 µM ([3]; 100 nM) of 5% and an inhibition at 1 µM ([3]; 1000 nM) of 31%. The inhibition at 0.01 µM ([4]; 10 nM) was -11%, the inhibition at 0.1 µM ([4]; 100 nM) was 2% and the inhibition at 1 µM ([4]; 1000 nM) was 6%. It also gave an inhibition at 0.01 µM ([5]; CDK5/p25(h)) of -6%, an inhibition at 0.1 µM ([5]; CDK5/p25(h)) of 2% and an inhibition at 1 µM ([5]; CDK5/p25(h)) of -2%. It also gave an inhibition at 0.01 µM ([5]; CDK5/p35(h)) of -7%, an inhibition at 0.1 µM ([5]; CDK5/p35(h)) of -6% and an inhibition at 1 µM ([5]; CDK5/p35(h)) of 5%. It also gave an inhibition at 0.01 µM ([6]; 10 nM) of 8%, an inhibition at 0.1 µM ([6]; 100 nM) of 13% and an inhibition at 1 µM ([6]; 1000 nM) of 28%. The inhibition at 0.01 µM ([7]; 10 nM) was 13%, the inhibition at 0.1 µM ([7]; 100 nM) was 0% and the inhibition at 1 µM ([7]; 1000 nM) was -5%. For the same molecule, the inhibition at 0.01 µM ([8]; 10 nM) was 11%, the inhibition at 0.1 µM ([8]; 100 nM) was 19% and the inhibition at 1 µM ([8]; 1000 nM) was 17%.
